The record followed here is patent US11099176B2 (priority 2015, dated 2021).

pKd: −log10 of the molar value.

What all share (format): binding
Experiment [1] concerns the target Marinobacter sp. msLacBP6 variant G170C, SEQ ID NO: 36, Badan conjugate. Description: Fluorescence titration of conjugate. The following applies: read-out: trueKd (lactate); monochromatic, 520 nm.
Experiment [2] addresses Marinobacter sp. msLacBP6 variant V188C, SEQ ID NO: 39, Badan conjugate. Briefly: Fluorescence titration of conjugate. The following applies: read-out: trueKd (lactate); monochromatic, 513 nm.
Experiment [3] deals with Marinobacter sp. msLacBP6 187C mutants (variants of Table 7). Description: Affinity summary of msLacBP6 187C affinity-tuning mutants. The source says:
In the PCS we mutated F68 (F98 in ttLacBP1) and D220 (D250 in ttLacBP1). […] It could therefore be considered part of a secondary complementary surface layer (SCS). In the interface we mutated L70 (L100 in ttLacBP1), which is located at the periphery of the lactate-binding site, and forms a contact from the N- to the C-terminal domain across the inter-domain interface.
Both PCS and SCS mutations perturbed the spectral shapes of the lactate-mediated responses. […] These affinity-tuned sensors therefore provide a suitable set for clinical chemistry applications.

As to `C[C@H](O)C(=O)O` [lactate], the pKd in experiment [1] was 4.70; in experiment [2], 3.40; in experiment [3] (read-out: lactate affinities (range over variants), msLacBP6 Acrylodan and Badan conjugate variants), 1.62 to 3.70. Besides, in experiment [3] (F68 mutations in 187C background), the “effect of F68 mutations on lactate affinity” value is recorded as “did not greatly affect lactate affinity”.
